In US8115015B2 (Cadila Healthcare Limited, priority 2009, dated 2012):

Assay: Stability of Atorvastatin Calcium Amorphous (related substances by HPLC on storage)
Format: physicochemical
[1] = 25° ± 2° C./RH 60 ± 5%, 1 Month
[2] = 25° ± 2° C./RH 60 ± 5%, 2 Months
[3] = 25° ± 2° C./RH 60 ± 5%, 3 months
[4] = 25° ± 2° C./RH 60 ± 5%, 6 Months
[5] = 25° ± 2° C./RH 60 ± 5%, 6 Months, listed as stable amorphous atrovastatin calcium
[6] = 25°±2° C./RH 60±5% for 6 months
[7] = Cold (5° C.) 2° to 8° C., 1 Month
[8] = Cold (5° C.) 2° to 8° C., 2 Months
[9] = Cold (5° C.) 2° to 8° C., 3 months
[10] = Cold (5° C.) 2° to 8° C., 6 Months
[11] = Cold (5° C.) 2° to 8° C., 6 Months, listed as stable amorphous atrovastatin calcium

hemi-calcium salt of (3R, 5R) 7-[3-phenyl-4-phenylcarbamoyl-2-(4-fluorophenyl)-5-isopropyl-pyrrol-1-yl]-3,5-dihydroxyheptanoic acid [Atorvastatin Calcium Amorphous]
0.08%: Related Substance by HPLC: Atorvastatin Diasteroisomer [1] | Related Substance by HPLC: Atorvastatin Diasteroisomer [7] | Related Substance by HPLC: Atorvastatin Lactone [7] | Related Substance by HPLC: Atorvastatin Diasteroisomer [10]
less than 0.15%: single individual known impurities, area percentage of HPLC [6] | single individual known impurities, area percentage of HPLC (cold (5° C.) condition for 6 months)
0.03%: Related Substance by HPLC: 3-O-Methyl Atorvastatin Calcium [3] | Related Substance by HPLC: 3-O-Methyl Atorvastatin Calcium [4] | Related Substance by HPLC: 3-O-Methyl Atorvastatin Calcium [7] | Related Substance by HPLC: 3-O-Methyl Atorvastatin Calcium [8] | Related Substance by HPLC: 3-O-Methyl Atorvastatin Calcium [9] | Related Substance by HPLC: 3-O-Methyl Atorvastatin Calcium [10]
0.02%: Related Substance by HPLC: 3-O-Methyl Atorvastatin Calcium [1] | Related Substance by HPLC: 3-O-Methyl Atorvastatin Calcium (Initial)
0.11%: Related Substance by HPLC: Atorvastatin Diasteroisomer [4]
0.07%: Related Substance by HPLC: Atorvastatin Lactone [1] | Related Substance by HPLC: Atorvastatin Desflouro Calcium [8] | Related Substance by HPLC: Atorvastatin Desflouro Calcium [9] | Related Substance by HPLC: Atorvastatin Diasteroisomer (Initial)
0.10%: Related Substance by HPLC: Atorvastatin Diasteroisomer [2] | Related Substance by HPLC: Atorvastatin Diasteroisomer [9]
0.03: Related Substance by HPLC: 3-O-Methyl Atorvastatin Calcium [2]
0.12%: Related Substance by HPLC: Atorvastatin Diasteroisomer [3]
0.04%: Related Substance by HPLC: Atorvastatin Lactone [3] | Related Substance by HPLC: Atorvastatin Lactone [8]
0.01%: Related Substance by HPLC: Atorvastatin protected diol (Initial)
0.09%: Related Substance by HPLC: Atorvastatin Diasteroisomer [8] | Related Substance by HPLC: Atorvastatin Lactone (Initial)
0.05%: Related Substance by HPLC: Atorvastatin Desflouro Calcium [1] | Related Substance by HPLC: Atorvastatin Lactone [2] | Related Substance by HPLC: Atorvastatin Lactone [4] | Related Substance by HPLC: Atorvastatin Lactone [9] | Related Substance by HPLC: Atorvastatin Desflouro Calcium [10]
less than 0.1%: Related Substance by HPLC: Atorvastatin diol methyl ester [4] | Related Substance by HPLC: Atorvastatin protected diol [4] | Related Substance by HPLC: t-butyl diol ester [4] | Related Substance by HPLC: 3-O-Methyl Atorvastatin Calcium [5] | Related Substance by HPLC: Atorvastatin Desflouro Calcium [5] | Related Substance by HPLC: Atorvastatin Diasteroisomer [5] | Related Substance by HPLC: Atorvastatin Lactone [5] | single individual unknown impurities, area percentage of HPLC [6] | Related Substance by HPLC: Atorvastatin diol methyl ester [10] | Related Substance by HPLC: Atorvastatin protected diol [10] | Related Substance by HPLC: t-butyl diol ester [10] | Related Substance by HPLC: 3-O-Methyl Atorvastatin Calcium [11] | Related Substance by HPLC: Atorvastatin Desflouro Calcium [11] | Related Substance by HPLC: Atorvastatin Diasteroisomer [11] | Related Substance by HPLC: Atorvastatin Lactone [11]
0.06%: Related Substance by HPLC: Atorvastatin Desflouro Calcium [2] | Related Substance by HPLC: Atorvastatin Desflouro Calcium [3] | Related Substance by HPLC: Atorvastatin Desflouro Calcium [4] | Related Substance by HPLC: Atorvastatin Desflouro Calcium [7] | Related Substance by HPLC: Atorvastatin Lactone [10] | Related Substance by HPLC: Atorvastatin Desflouro Calcium (Initial)
< 0.1%: single individual unknown impurities, area percentage of HPLC (20 to 8° C. under cold (5° C.) condition for 6 months)
